Measurements reported in patent US8569291B2, “Bicyclic dihydroimidazolone CGRP receptor antagonists” (Merck Sharp & Dohme Corp., priority 2008, dated 2013).
pKi: −log10 of the molar value.

Target: recombinant human CL receptor/RAMP1 (Homo sapiens (Human), UniProt O60894+Q16602)
Assay: recombinant receptor binding assay (125I-hCGRP displacement)
Settings: membranes of HEK 293 cells expressing human CL receptor/RAMP1, 10 pM 125I-hCGRP
Method: RECOMBINANT RECEPTOR: Human CL receptor (Genbank accession number L76380) was subcloned into the expression vector pIREShyg2 (BD Biosciences Clontech) as a 5′NheI and 3′ PmeI fragment. Human RAMP1 (Genbank accession number AJ001014) was subcloned into the expression vector pIRESpuro2 (BD Biosciences Clontech) as a 5′NheI and 3′NotI fragment. HEK 293 cells (human embryonic kidney cells; ATCC #CRL-1573) were cultured in DMEM with 4.5 g/L glucose, 1 mM sodium pyruvate and 2 mM glutamine supplemented with 10% fetal bovine serum (FBS), 100 units/mL penicillin and 100 μg/mL streptomycin, and maintained at 37° C. and 95% humidity. Cells were subcultured by treatment with 0.25% trypsin with 0.1% EDTA in HBSS. Stable cell line generation was accomplished by co-transfecting 10 μg of DNA with 30 ug Lipofectamine 2000 (Invitrogen) in 75 cm^2 flasks. CL receptor and RAMP1 expression constructs were co-transfected in equal amounts. Twenty-four hours after transfection the cells were diluted and selective medium (growth medium+300 μg/mL hygromycin and 1 μg/mL puromycin) was added the following day. A clonal cell line was generated by single cell deposition utilizing a FACS Vantage SE (Becton Dickinson). Growth medium was adjusted to 150 μg/mL hygromycin and 0.5 μg/mL puromycin for cell propagation.
RECOMBINANT RECEPTOR BINDING ASSAY: Cells expressing recombinant human CL receptor/RAMP1 were washed with PBS and harvested in harvest buffer containing 50 mM HEPES, 1 mM EDTA and Complete protease inhibitors (Roche). The cell suspension was disrupted with a laboratory homogenizer and centrifuged at 48,000 g to isolate membranes. The pellets were resuspended in harvest buffer plus 250 mM sucrose and stored at—70° C. For binding assays, 20 μg of membranes were incubated in 1 ml binding buffer (10 mM HEPES, pH 7.4, 5 mM MgCl2, and 0.2% BSA) for 3 hours at room temperature containing 10 pM ^125I-hCGRP (GE Healthcare) and antagonist. The assay was terminated by filtration through 96-well GFB glass fiber filter plates (PerkinElmer) that had been blocked with 0.05% polyethyleneimine. The filters were washed 3 times with ice-cold assay buffer (10 mM HEPES, pH 7.4 and 5 mM MgCl2). Scintillation fluid was added and the plates were counted on a Topcount (Packard). Non-specific binding was determined and the data analysis was carried out with the apparent dissociation constant (Ki) determined by using a non-linear least squares fitting the bound CPM data to the equation below:
[formula] Where Y is observed CPM bound, Ymax is total bound counts, Ymin is non specific bound counts, (Ymax−Ymin) is specific bound counts, % Imax is the maximum percent inhibition, % I min is the minimum percent inhibition, radiolabel is the probe, and the Kd is the apparent dissociation constant for the radioligand for the receptor as determined by Hot saturation experiments.

recombinant human CL receptor/RAMP1, sequence (Q16602 23-461): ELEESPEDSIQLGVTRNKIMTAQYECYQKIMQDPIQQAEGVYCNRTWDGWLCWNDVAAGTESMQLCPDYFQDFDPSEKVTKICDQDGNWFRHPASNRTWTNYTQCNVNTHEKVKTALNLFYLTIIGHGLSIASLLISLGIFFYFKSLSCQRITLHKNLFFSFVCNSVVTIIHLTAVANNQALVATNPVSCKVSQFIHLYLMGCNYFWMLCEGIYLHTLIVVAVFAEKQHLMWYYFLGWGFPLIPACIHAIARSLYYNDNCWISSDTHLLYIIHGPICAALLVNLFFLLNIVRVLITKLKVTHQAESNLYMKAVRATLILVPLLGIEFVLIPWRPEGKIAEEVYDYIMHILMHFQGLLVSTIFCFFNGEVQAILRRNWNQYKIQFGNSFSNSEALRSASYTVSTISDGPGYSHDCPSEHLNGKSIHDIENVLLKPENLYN
recombinant human CL receptor/RAMP1, sequence (O60894 27-148): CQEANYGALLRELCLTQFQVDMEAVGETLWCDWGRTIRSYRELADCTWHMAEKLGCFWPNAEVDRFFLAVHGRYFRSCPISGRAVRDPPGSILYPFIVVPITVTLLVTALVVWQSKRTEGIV

pKi	SMILES
7.60	O=C(Cn1c(=O)n(-c2nccs2)c2ccccc21)Nc1ccc2c(c1)CC1(C2)N=C(c2ccccc2)NC1=O (racemic) [Example 1, (±)-N-(5-oxo-2-phenyl-1,1′,3′,5-tetrahydrospiro[imidazole-4,2′-inden]-5′-yl)-2-[2-oxo-3-(1,3-thiazol-2-yl)-2,3-dihydro-1H-benzimidazol-1-yl]acetamide]
6.24	O=C(Cn1c(=O)n(-c2ccccn2)c2ccccc21)Nc1ccc2c(c1)CC1(C2)N=C(c2ccccn2)NC1=O (racemic) [Example 2, (±)-2-(2-oxo-3-pyridin-2-yl-2,3-dihydro-1H-benzimidazol-1-yl)-N-(5-oxo-2-pyridin-2-yl-1,1′,3′,5-tetrahydrospiro[imidazole-4,2′-inden]-5′-yl)acetamide]
9.68	O=C(CN1C(=O)C2(CCCC2)NC[C@H]1c1cc(F)cc(F)c1)Nc1ccc2c(c1)CC1(C2)N=C(c2ccccc2)NC1=O (single isomer, unassigned) [Example 11]
7.54	O=C(CN1C(=O)C2(CCCC2)NC[C@H]1c1cc(F)cc(F)c1)Nc1ccc2c(c1)CC1(C2)N=C(c2ccccc2)NC1=O (single isomer, unassigned) [Example 12]
5.59	O=C(Cn1c(=O)n(-c2ccccn2)c2ccccc21)Nc1ccc2c(c1)CC1(C2)N=C(C2CC2)NC1=O (centres unmarked) [Example 3]
5.19	CCCC1=NC2(Cc3ccc(NC(=O)Cn4c(=O)n(-c5ccccn5)c5ccccc54)cc3C2)C(=O)N1 (centres unmarked) [Example 4]
6.20	O=C(Cn1c(=O)n(-c2ccccn2)c2ccccc21)Nc1ccc2c(c1)CC1(C2)N=C(c2cnccn2)NC1=O (centres unmarked) [Example 6]
7.46	O=C(Cn1c(=O)n(-c2ccccn2)c2ccccc21)Nc1ccc2c(c1)CC1(C2)N=C(c2ccccc2)NC1=O (centres unmarked) [Example 7]
6.89	O=C(Cn1c(=O)n(-c2ccccn2)c2ccccc21)Nc1ccc2c(c1)CC1(C2)N=C(c2cccnc2)NC1=O (centres unmarked) [Example 8]
6.80	O=C(Cn1c(=O)n(-c2ccccn2)c2ccccc21)Nc1ccc2c(c1)CC1(C2)N=C(c2ccncc2)NC1=O (centres unmarked) [Example 9]
8.80	C[C@@]1(c2cc(F)cc(F)c2)CNC2(CCCC2)C(=O)N1CC(=O)Nc1ccc2c(c1)CC1(C2)N=C(c2ccccc2)NC1=O (some centres unmarked) [Example 13]
